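96-well plates; 48 h exposure; 5 concentrations. Endpoints by linear interpolation between flanking doses. Not reached: highest tested concentration assigned. At the GI50, growth is halved. TGI denotes the concentration required for complete inhibition of growth.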
Legend:
Assay in all cases: growth of human tumour cells (NCI), 48 h
[1] = system: NCI-H23 lung
[2] = system: NCI-H460 lung
[3] = system: NCI-H522 lung
[4] = system: NCI/ADR-RES ovarian
[5] = system: OVCAR-3 ovarian
[6] = system: OVCAR-4 ovarian
[7] = system: OVCAR-5 ovarian
[8] = system: OVCAR-8 ovarian
[9] = system: PC-3 prostate
[10] = system: RPMI-8226 leukemia
[11] = system: RXF 393 renal
[12] = system: SF-268 CNS
[13] = system: SF-295 CNS
[14] = system: SF-539 CNS
[15] = system: SK-MEL-2 melanoma
[16] = system: SK-MEL-28 melanoma
[17] = system: SK-MEL-5 melanoma
[18] = system: SK-OV-3 ovarian
[19] = system: SN12C renal
[20] = system: SNB-19 CNS
[21] = system: SNB-75 CNS
[22] = system: SR leukemia
[23] = system: SW-620 colon
[24] = system: T-47D breast
[25] = system: TK-10 renal
[26] = system: U251 CNS
[27] = system: UACC-257 melanoma
[28] = system: UACC-62 melanoma
[29] = system: UO-31 renal

Question: For C=CC[PH+](c1ccccc1)c1ccccc1.C=CC[PH+](c1ccccc1)c1ccccc1.[Cl][Pt][Cl], which GI50 [1] is on record?
Answer: 9.14 µM

Question: What about the TGI [1] of the same compound?
Answer: 23.9 µM

Question: What about the GI50 [2] of the same compound?
Answer: 12.8 µM

Question: And the TGI [2]?
Answer: 30.1 µM

Question: What about the GI50 [3] of the same compound?
Answer: 2.68 µM

Question: And the TGI [3]?
Answer: 8.19 µM

Question: And the GI50 [4]?
Answer: 25.1 µM

Question: What about the TGI [4] of the same compound?
Answer: > 100 µM

Question: What about the GI50 [5] of the same compound?
Answer: 3.21 µM

Question: What about the TGI [5] of the same compound?
Answer: 10.4 µM

Question: What about the GI50 [6] of the same compound?
Answer: 4.78 µM

Question: And the TGI [6]?
Answer: 16.8 µM

Question: And the GI50 [7]?
Answer: 13.9 µM

Question: What about the TGI [7] of the same compound?
Answer: 30.4 µM

Question: And the GI50 [8]?
Answer: 5.25 µM

Question: What about the TGI [8] of the same compound?
Answer: 31.5 µM

Question: And the GI50 [9]?
Answer: 7.11 µM

Question: And the TGI [9]?
Answer: 24.6 µM

Question: And the GI50 [10]?
Answer: 3.18 µM

Question: And the TGI [10]?
Answer: 13.6 µM

Question: And the GI50 [11]?
Answer: 3.33 µM

Question: And the TGI [11]?
Answer: 9.82 µM

Question: And the GI50 [12]?
Answer: 14.2 µM

Question: And the TGI [12]?
Answer: 32 µM

Question: What about the GI50 [13] of the same compound?
Answer: 37.9 µM

Question: And the TGI [13]?
Answer: > 100 µM

Question: What about the GI50 [14] of the same compound?
Answer: 13.2 µM

Question: What about the TGI [14] of the same compound?
Answer: 26.3 µM

Question: And the GI50 [15]?
Answer: 18.3 µM

Question: And the TGI [15]?
Answer: 40.4 µM

Question: And the GI50 [16]?
Answer: 7.69 µM

Question: What about the TGI [16] of the same compound?
Answer: 21.3 µM

Question: And the GI50 [17]?
Answer: 15.8 µM

Question: What about the TGI [17] of the same compound?
Answer: 30.6 µM

Question: What about the GI50 [18] of the same compound?
Answer: 24 µM

Question: What about the TGI [18] of the same compound?
Answer: 65.7 µM

Question: And the GI50 [19]?
Answer: 3.35 µM

Question: What about the TGI [19] of the same compound?
Answer: 13.9 µM

Question: What about the GI50 [20] of the same compound?
Answer: 14.2 µM

Question: And the TGI [20]?
Answer: 32.4 µM

Question: What about the GI50 [21] of the same compound?
Answer: 11 µM

Question: And the TGI [21]?
Answer: 25.1 µM

Question: What about the GI50 [22] of the same compound?
Answer: 2.84 µM

Question: What about the TGI [22] of the same compound?
Answer: 11.7 µM

Question: And the GI50 [23]?
Answer: 3.46 µM

Question: What about the TGI [23] of the same compound?
Answer: 13.6 µM

Question: What about the GI50 [24] of the same compound?
Answer: 4.59 µM

Question: What about the TGI [24] of the same compound?
Answer: 24.6 µM

Question: What about the GI50 [25] of the same compound?
Answer: 13.4 µM

Question: What about the TGI [25] of the same compound?
Answer: 32.7 µM

Question: And the GI50 [26]?
Answer: 7.45 µM

Question: And the TGI [26]?
Answer: 22.3 µM

Question: What about the GI50 [27] of the same compound?
Answer: 11.9 µM

Question: What about the TGI [27] of the same compound?
Answer: 31.6 µM

Question: What about the GI50 [28] of the same compound?
Answer: 5.88 µM

Question: What about the TGI [28] of the same compound?
Answer: 19.5 µM

Question: And the GI50 [29]?
Answer: 3.95 µM

Question: What about the TGI [29] of the same compound?
Answer: 16.4 µM
